From patent US7705030B2, “Amino-5-(5-membered)hetero-arylimidazolone compounds and the use thereof for β-secretase modulation” (Wyeth LLC, priority 2005, dated 2010)

Target: human BACE1 (Homo sapiens, UniProt P56817)
Assay: Fluorescent kinetic assay: Evaluation of BACE-1 Binding Affinity of Test Compounds
Format: biochemical
Details: 10 nM enzyme, 25 μM substrate WABC-6, 50 mM Na-Acetate pH 4.5, room temperature
Experimental: Evaluation of BACE-1 Binding Affinity of Test Compounds
Fluorescent Kinetic Assays
Final Assay Conditions: 10 nM human BACE1 (or 10 nM Murine BACE1, 1.5 nM human BACE2), 25 μM substrate (WABC-6, MW 1549.6, from AnaSpec), Buffer: 50 mM Na-Acetate, pH 4.5, 0.05% CHAPS, 25% PBS, room temperature. Na-Acetate was from Aldrich, Cat.# 24, 124-5, CHAPS was from Research Organics, Cat. # 1304C 1×, PBS was from Mediatech (Cellgro), Cat# 21-031-CV, peptide substrate Abz[…]pa was from AnaSpec, Peptide Name: WABC-6 Determination of stock substrate (Abz[…]pa) concentration: ˜25 mM stock solution is made in DMSO using the peptide weight and MW, and diluted to ˜25 μM (1:1000) in 1×PBS. Concentration is determined by absorbance at 354 nm using an extinction coefficient ε of 18172 M^−1 cm^−1, the concentration of stock substrate is corrected, and the substrate stock stored in small aliquots in −80° C. [Substrate Stock]=ABS^354 nm*10^6/18172 (in […]) The extinction coefficient ε^354 nm was adapted from TACE peptide substrate, which had the same quencher-fluorophore pair.
Determination of Stock Enzyme Concentration: the stock concentration of each enzyme is determined by absorbance at 280 nm using an ε of 64150 M^−1 cm^−1 for hBACE1 and MuBACE1, 62870 M^−1 cm^−1 for hBACE2 in 6 M Guanidinium Hydrochloride (from Research Organics, Cat. # 5134G-2), pH ˜6. The extinction coefficient ε^280 nm for each enzyme was calculated based on known amino acid composition and published extinction coefficients for Trp ([…]) and Tyr ([…]) residues (Anal. Biochem. 182, 319-326).
Dilution and mixing steps: total reaction volume: 100 μL
2× inhibitor dilutions in buffer A(66.7 mM Na-Acetate, pH 4.5, 0.0667% CHAPS) were prepared,
4× enzyme dilution in buffer A(66.7 mM Na-Acetate, pH 4.5, 0.0667% CHAPS) were prepared,
100 μM substrate dilution in 1×PBS was prepared, and
50 μL 2× Inhibitor, 25 μL 100 μM substrate are added to each well of 96-well plate (from DYNEX Technologies, VWR #: 11311-046), immediately followed by 25 μL 4× enzyme (added to the inhibitor and substrate mix), and the fluorescence readings are initiated.
Fluorescence Readings: Readings at λex 320 nm and λem 420 nm are taken every 40 sec for 30 min at room temperature and the linear slope for substrate cleavage rate (vi) determined.
Testing at least 10 different inhibitor concentrations is preferred.

human BACE1, sequence (P56817 46-501): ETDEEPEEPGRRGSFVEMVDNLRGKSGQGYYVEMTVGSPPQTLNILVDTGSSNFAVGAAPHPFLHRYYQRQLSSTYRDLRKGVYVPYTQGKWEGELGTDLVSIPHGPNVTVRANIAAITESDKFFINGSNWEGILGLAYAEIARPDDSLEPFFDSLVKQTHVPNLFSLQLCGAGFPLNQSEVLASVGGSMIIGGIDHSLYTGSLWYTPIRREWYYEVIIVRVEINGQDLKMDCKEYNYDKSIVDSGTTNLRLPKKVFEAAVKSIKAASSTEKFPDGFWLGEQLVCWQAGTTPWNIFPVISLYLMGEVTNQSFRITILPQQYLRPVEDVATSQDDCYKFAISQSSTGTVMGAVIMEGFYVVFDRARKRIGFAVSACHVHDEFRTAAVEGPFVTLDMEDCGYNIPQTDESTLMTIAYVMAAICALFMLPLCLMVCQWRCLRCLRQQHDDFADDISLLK

Row | SMILES | IC50 [nM]
1 | CCC(=O)c1cc([C@@]2(c3cccc(-c4cc(F)cnc4F)c3)N=C(N)N(C)C2=O)cn1CCF [242 B] | > 1000
2 | CCn1cc([C@@]2(c3cccc(-c4cccnc4F)c3)N=C(N)N(C)C2=O)cc1C(=O)C1CC1 [243 B] | > 1000
3 | CCC(=O)c1cc([C@@]2(c3cccc(-c4cccnc4F)c3)N=C(N)N(C)C2=O)cs1 [244 B] | 110 to 1000
4 | CC(=O)c1cc([C@]2(c3ccccc3)N=C(N)N(C)C2=O)cn1C [249 A] | > 1000
5 | CC(=O)c1cc([C@@]2(c3ccccc3)N=C(N)N(C)C2=O)cn1C [249 B] | > 1000
6 | CCC(=O)c1cc([C@@]2(c3cccc(-c4cccnc4F)c3)N=C(N)N(C)C2=O)cn1CCCCF [250 B] | > 1000
7 | CCC(=O)c1cc([C@@]2(c3cccc(-c4cccnc4F)c3)N=C(N)N(C)C2=O)cn1CC1CC1 [251 B] | > 1000
8 | CCC(=O)c1cc([C@@]2(c3cccc(-c4cccnc4F)c3)N=C(N)N(C)C2=O)cn1CCCC(F)(F)F [252 B] | > 1000
9 | CCC(=O)c1cc([C@@]2(c3cccc(-c4cccnc4F)c3)N=C(N)N(C)C2=O)cn1CC(F)F [253 B] | > 1000
10 | CCCn1cc([C@@]2(c3cccc(-c4cccnc4F)c3)N=C(N)N(C)C2=O)cc1C(=O)CC [254 B] | > 1000
11 | CCC(=O)c1cc([C@@]2(c3cccc(-c4cccnc4F)c3)N=C(N)N(C)C2=O)cn1CCCF [255 B] | > 1000
12 | CCC(=O)c1cc([C@@]2(c3cccc(-c4cccnc4F)c3)N=C(N)N(C)C2=O)cn1CCF [256 B] | > 1000
13 | COC(=O)c1cc([C@@]2(c3cccc(-c4cccnc4F)c3)N=C(N)N(C)C2=O)cn1CCF [257 B] | 110 to 1000
14 | COC(=O)c1cc([C@@]2(c3ccc(F)c(-c4cncnc4)c3)N=C(N)N(C)C2=O)cn1CC(F)(F)F [258 B] | > 1000
15 | CN1C(=O)C(c2cccc(-c3cncnc3)c2)(c2cnn(C)c2)N=C1N (stereo not drawn) [Example 1, 2-Amino-3-methyl-5-(1-methyl-1H-pyrazol-4-yl)-5-(3-pyrimidin-5-ylphenyl)-3,5-dihydro-4-imidazol-4-one] | 110 to 1000
16 | COc1ncccc1-c1cc(C2(c3ccsc3)N=C(N)N(C)C2=O)ccc1F (stereo not drawn) [Example 38] | 110 to 1000
17 | CCn1cc([C@@]2(c3cccc(-c4cccnc4F)c3)N=C(N)N(C)C2=O)cn1 [Example 44A, (5R)-2-Amino-5-(1-ethyl-1H-pyrazol-4-yl)-5-[3-(2-fluoropyridin-3-yl)phenyl]-3-methyl-3,5-dihydro-4H-imidazol-4-one] | > 1000
18 | CCn1cc(C2(c3cccc(-c4cncc(F)c4)c3)N=C(N)N(C)C2=O)cn1 (stereo not drawn) [Example 45, 2-Amino-5-(1-ethyl-1H-pyrazol-4-yl)-5-[3-(5-fluoro-pyridin-3-yl)-phenyl]-3-methyl-3,5-dihydro-imidazol-4-one] | 10 to 100
19 | CCn1cc(C2(c3cccc(-c4cncc(Cl)c4)c3)N=C(N)N(C)C2=O)cn1 (stereo not drawn) [Example 46, 2-Amino-5-[3-(5-chloropyridin-3-yl)phenyl]-5-(1-ethyl-1H-pyrazol-4-yl)-3-methyl-3,5-dihydro-imidazol-4-one] | 10 to 100
20 | CC(C)n1cc(C#Cc2ccc(F)c(Br)c2)cn1 [Example 94, 4-(3-bromo-4-fluorophenylethynyl)-1-isopropyl-1H-pyrazole] | 10 to 100
21 | CCCCc1ccc(C2(c3ccccc3)N=C(N)N(C)C2=O)s1 (stereo not drawn) [Example 109, 2-Amino-5-(5-butylthien-2-yl)-3-methyl-5-phenyl-3,5-dihydro-4H-imidazol-4-one] | > 1000
22 | COc1ccc(C2(c3cc(-c4ccc(F)cc4)cs3)N=C(N)N(C)C2=O)cc1C (stereo not drawn) [Example 111, 2-Amino-5-[4-(4-fluorophenyl)thien-2-yl]-5-(4-methoxy-3-methylphenyl)-3-methyl-3,5-dihydro-4H-imidazol-4-one] | 110 to 1000
23 | CCC(=O)c1cc(C2(c3cccc(Br)c3)N=C(N)N(C)C2=O)cn1CCF (stereo not drawn) [Example 150, 2-Amino-5-[3-bromophenyl]-5-[1-(2-fluoroethyl)-5-propionyl-1H-pyrrol-3-yl)-3-methyl-3,5-dihydro-4H-imidazol-4-one] | 110 to 1000
24 | CCC(=O)c1cc(C2(c3cccc(-c4cc(F)cnc4F)c3)N=C(N)N(C)C2=O)cn1CCF (stereo not drawn) [Example 151, 2-Amino-5-[3-(2,5-difluoropyridin-3-yl)phenyl]-5-[1-(2-fluoro-ethyl)-5-propionyl-1H-pyrrol-3-yl)-3-methyl-3,5-dihydro-4H-imidazol-4-one] | 10 to 100
25 | CCC(=O)c1cc(C2(c3cccc(-c4cccnc4F)c3)N=C(N)N(C)C2=O)cn1CCC(C)C (stereo not drawn) [Example 153] | 10 to 100
26 | CCC(=O)c1cc(C2(c3cccc(-c4cccnc4F)c3)N=C(N)N(C)C2=O)c[nH]1 (stereo not drawn) [Example 154] | 10 to 100
27 | CCC(=O)c1cc([C@@]2(c3ccc(F)c(-c4cccnc4F)c3)N=C(N)N(C)C2=O)cn1CC [Example 183B, (5R)-2-Amino-5-(1-ethyl-5-propionyl-1H-pyrrol-3-yl)-5-[4-fluoro-3-(2-fluoropyridin-3-yl)phenyl]-3-methyl-3,5-dihydro-4H-imidazol-4-one] | > 1000
28 | COC(=O)c1cc([C@@]2(c3ccc(F)c(-c4cccnc4F)c3)N=C(N)N(C)C2=O)cn1CCF [Example 184B, Methyl 4-{(4R)-2-amino-4-[4-fluoro-3-(2-fluoropyridin-3-yl)phenyl]-1-methyl-5-oxo-4,5-dihydro-1H-imidazol-4-yl}-1-(2-fluoroethyl)-1H-pyrrole-2-carboxylate] | 110 to 1000

More lines, now with the values ahead:

Row | IC50 [nM] | SMILES
29 | 10 to 100 | CCC(=O)c1cc([C@]2(c3cccc(-c4cc(F)cnc4F)c3)N=C(N)N(C)C2=O)cn1CCF [242 A]
30 | 10 to 100 | CCn1cc([C@]2(c3cccc(-c4cccnc4F)c3)N=C(N)N(C)C2=O)cc1C(=O)C1CC1 [243 A]
31 | 10 to 100 | CCC(=O)c1cc([C@]2(c3cccc(-c4cccnc4F)c3)N=C(N)N(C)C2=O)cs1 [244 A]
32 | 10 to 100 | CCC(=O)c1cc([C@]2(c3cccc(-c4cccnc4F)c3)N=C(N)N(C)C2=O)cn1CCCCF [250 A]
33 | 10 to 100 | CCC(=O)c1cc([C@]2(c3cccc(-c4cccnc4F)c3)N=C(N)N(C)C2=O)cn1CC1CC1 [251 A]
34 | 10 to 100 | CCC(=O)c1cc([C@]2(c3cccc(-c4cccnc4F)c3)N=C(N)N(C)C2=O)cn1CCCC(F)(F)F [252 A]
35 | 10 to 100 | CCC(=O)c1cc([C@]2(c3cccc(-c4cccnc4F)c3)N=C(N)N(C)C2=O)cn1CC(F)F [253 A]
36 | 10 to 100 | CCCn1cc([C@]2(c3cccc(-c4cccnc4F)c3)N=C(N)N(C)C2=O)cc1C(=O)CC [254 A]
37 | 10 to 100 | CCC(=O)c1cc([C@]2(c3cccc(-c4cccnc4F)c3)N=C(N)N(C)C2=O)cn1CCCF [255 A]
38 | 10 to 100 | CCC(=O)c1cc([C@]2(c3cccc(-c4cccnc4F)c3)N=C(N)N(C)C2=O)cn1CCF [256 A]
39 | 10 to 100 | COC(=O)c1cc([C@]2(c3cccc(-c4cccnc4F)c3)N=C(N)N(C)C2=O)cn1CCF [257 A]
40 | 10 to 100 | COC(=O)c1cc([C@]2(c3ccc(F)c(-c4cncnc4)c3)N=C(N)N(C)C2=O)cn1CC(F)(F)F [258 A]
41 | 10 to 100 | CN1C(=O)C(c2ccsc2)(c2ccc(F)c(-c3cccnc3F)c2)N=C1N (stereo not drawn) [Example 39]
42 | 10 to 100 | CN1C(=O)C(c2ccsc2)(c2ccc(F)c(-c3cccnc3)c2)N=C1N (stereo not drawn) [Example 40]
43 | 10 to 100 | CCn1cc(C2(c3cncnc3)N=C(N)N(C)C2=O)cn1 (stereo not drawn) [Example 42, 2-Amino-5-(1-ethyl-1H-pyrazol-4-yl)-3-methyl-5-(3-pyrimidin-5-yl)-3,5-dihydro-4H-imidazol-4-one]
44 | 10 to 100 | CCn1cc(C2(c3cccc(-c4cccnc4F)c3)N=C(N)N(C)C2=O)cn1 (stereo not drawn) [Example 43, 2-Amino-5-(1-ethyl-1H-pyrazol-4-yl)-5-[3-(2-fluoro-pyridin-3-yl)-phenyl]-3-methyl-3,5-dihydro-imidazol-4-one]
45 | 10 to 100 | CCn1cc([C@]2(c3cccc(-c4cccnc4F)c3)N=C(N)N(C)C2=O)cn1 [Example 44B, (5S)-2-Amino-5-(1-ethyl-1H-pyrazol-4-yl)-5-[3-(2-fluoropyridin-3-yl)phenyl]-3-methyl-3,5-dihydro-4H-imidazol-4-one]
